Source: patent US20070027064A1, “Pharmaceutical compositions for inhibiting metal ion dependent enzymatic activity and methods for the use thereof” (priority 2003, published 2007)

Key:
[1] = tested on: inducible nitric oxide synthetase (iNOS); design: inducible nitric oxide synthetase (iNOS): dose or concentration left out as unconfirmed; conditions: murine macrophages, cited from earlier work
[2] = tested on: inducible nitric oxide synthetase; conditions: rat mesangial cells; cited from earlier work
[3] = tested on: cancer cells; conditions: examined over 0.1-10 μM, FIG. 1
Excerpt: It is recognized that the induction of MMPs is a key event in angiogenesis and metastatic tumor cell invasiveness.

[4] = target: MMP-2 (Homo sapiens, UniProt P08253)
Chain of MMP-2 (P08253 110-660): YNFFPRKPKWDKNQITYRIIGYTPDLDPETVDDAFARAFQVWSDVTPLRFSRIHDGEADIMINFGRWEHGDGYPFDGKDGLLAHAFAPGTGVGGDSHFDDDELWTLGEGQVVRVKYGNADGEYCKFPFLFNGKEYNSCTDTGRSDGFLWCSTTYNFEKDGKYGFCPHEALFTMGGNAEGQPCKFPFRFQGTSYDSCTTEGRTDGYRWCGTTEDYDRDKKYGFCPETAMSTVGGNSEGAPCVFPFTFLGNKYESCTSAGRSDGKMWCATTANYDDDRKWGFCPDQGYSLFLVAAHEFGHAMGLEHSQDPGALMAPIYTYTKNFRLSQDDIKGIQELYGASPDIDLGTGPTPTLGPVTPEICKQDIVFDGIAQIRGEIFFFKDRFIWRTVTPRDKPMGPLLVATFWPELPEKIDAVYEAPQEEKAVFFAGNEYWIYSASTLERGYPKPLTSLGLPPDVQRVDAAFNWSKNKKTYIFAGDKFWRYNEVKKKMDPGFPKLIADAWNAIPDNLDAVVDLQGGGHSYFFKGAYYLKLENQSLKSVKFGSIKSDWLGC
Description: (§1) Sub-confluent cell cultures were incubated for 6-24 h in serum-free DMEM and the resulted supernatant were analyzed for collagenolytic activity. The collagenolytic activity was determined on a gelatin impregnated (1 mg/ml, Difco, Detroit, Mich.), SDS-PAGE 8% gel, with minor modifications. […] The gels were then incubated for 16 hours at 37° C. in 50 mM Tris, 0.2M NaCl, 5 mM CaCl2, 0.02% Brij 35 (w/v) at pH 7.6. At the end of the incubation period, the gels were stained with 0.5% Coomassie G 250 (Bio-Rad Richmond Calif.) in methanol/acetic acid/H2O (30:10:60). The intensity of the various bands was determined on a computerized densitometer (Molecular Dynamics type 300A).

[5] = target: MMP-9 (Homo sapiens, UniProt P14780)
Chain of MMP-9 (P14780 94-707): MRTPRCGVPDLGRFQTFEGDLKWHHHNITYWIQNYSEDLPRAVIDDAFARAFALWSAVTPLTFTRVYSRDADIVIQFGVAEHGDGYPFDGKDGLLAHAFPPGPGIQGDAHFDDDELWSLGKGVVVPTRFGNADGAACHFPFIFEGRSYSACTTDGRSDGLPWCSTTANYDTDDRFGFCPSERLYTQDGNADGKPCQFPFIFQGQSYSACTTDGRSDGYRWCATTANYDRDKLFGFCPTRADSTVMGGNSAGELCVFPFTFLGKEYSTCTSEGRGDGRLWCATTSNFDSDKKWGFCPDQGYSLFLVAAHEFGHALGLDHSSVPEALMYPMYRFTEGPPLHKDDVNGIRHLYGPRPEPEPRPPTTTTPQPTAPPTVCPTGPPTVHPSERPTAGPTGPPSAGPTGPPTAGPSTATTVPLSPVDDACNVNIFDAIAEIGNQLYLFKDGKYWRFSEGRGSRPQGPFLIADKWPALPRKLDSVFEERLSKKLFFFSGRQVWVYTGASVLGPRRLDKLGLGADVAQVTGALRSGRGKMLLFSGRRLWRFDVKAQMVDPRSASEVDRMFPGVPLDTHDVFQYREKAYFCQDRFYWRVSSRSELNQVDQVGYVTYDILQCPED
Description: as §1

[6] = cited from earlier work
[7] = tested on: tumor cells; conditions: 0.0001-0.1 μM TPEN, filters coated with collagen IV
Description: Chemotaxis evaluation was performed in a similar way to basement membrane invasion, with the exception that the filters were coated with […] collagen IV instead of Matrigel.

[8] = 6 hours of incubation, HT1080, TPEN 0.001-0.1 micromolar, FIG. 4A
[9] = 24 hours of incubation, HT1080, FIG. 4B

## NC(=O)C1=C(O)C[C@@H]2C[C@@H]3Cc4cccc(O)c4C(=O)C3=C(O)[C@]2(O)C1=O [COL-3, 6-demethyl-6-deoxy-4-dedimethylaminotetracycline]
[1]; COL-3 between 2.5 and 10 µg/mL, concentration-dependent
  nitric oxide production: inhibited
[1]; COL-3 between 2.5 and 10, concentration-dependent
  inducible nitric oxide synthetase (iNOS): inhibited
[2]
  inducible nitric oxide synthetase protein expression: decrease
  nitric oxide production: decrease

## c1ccc(CN(CCN(Cc2ccccn2)Cc2ccccn2)Cc2ccccn2)nc1 [TPEN, NNN′N′-Tetrakis-(2-pyridyl-methyl)-ethylenediamine]
[3]
  concentration above which TPEN has a toxic effect: above 0.1 μM
[4]; [8]
  MMP-2 activity, % from the control: 32%
[4]; [9]
  inhibition of MMP-2 activity after 24 hours: disappeared
[5]; [8]
  MMP-9 activity, % from the control: 64%
[5]; [9]
  inhibition of MMP-9 activity after 24 hours: disappeared
[6]; rank order of metal ions
  Ion affinity: Zn^2+ > Fe^2+ > Mn^2+ >> Ca^2+ > Mg^2+
[6]; under physiological blood concentration
  metal binding: binds zinc, iron, and copper but does not bind magnesium and calcium
[7]
  chemotactic activity of the cells: not affected
